Measurements reported in the supplement of paper PMC11451515.

Tested on: NOMO1
Experiment: cell viability relative to DMSO control; higher = less cytotoxic
Conditions: 48 h
Outline: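 Library compounds in DMSO were pin-dosed into 1536-well plates (5 μl) holding NOMO1 or SEM (500 cells/well) or P12-Ichikawa (1000 cells/well) leukemia cells, across an 11-point threefold series of 47 μM to 0.79 nM. Each cell line had been adapted for at least four passages in each medium. CellTiter-Glo One luminescence was read after 48 h at 37°C. Viability is the per-plate percentage relative to DMSO wells, with cell-free wells as background.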

[1] = HPLM + 10% dialyzed FBS, 0.000781 µM
[2] = HPLM + 10% dialyzed FBS, 0.00234 µM
[3] = HPLM + 10% dialyzed FBS, 0.00702 µM
[4] = HPLM + 10% dialyzed FBS, 0.0211 µM
[5] = HPLM + 10% dialyzed FBS, 0.0632 µM
[6] = HPLM + 10% dialyzed FBS, 0.19 µM
[7] = HPLM + 10% dialyzed FBS, 0.569 µM
[8] = HPLM + 10% dialyzed FBS, 1.71 µM
[9] = HPLM + 10% dialyzed FBS, 5.12 µM
[10] = HPLM + 10% dialyzed FBS, 15.4 µM
[11] = HPLM + 10% dialyzed FBS, 46.1 µM
[12] = RPMI 5 mM glucose + 10% FBS, 0.000781 µM
[13] = RPMI 5 mM glucose + 10% FBS, 0.00234 µM
[14] = RPMI 5 mM glucose + 10% FBS, 0.00702 µM
[15] = RPMI 5 mM glucose + 10% FBS, 0.0211 µM
[16] = RPMI 5 mM glucose + 10% FBS, 0.0632 µM
[17] = RPMI 5 mM glucose + 10% FBS, 0.19 µM
[18] = RPMI 5 mM glucose + 10% FBS, 0.569 µM
[19] = RPMI 5 mM glucose + 10% FBS, 1.71 µM
[20] = RPMI 5 mM glucose + 10% FBS, 5.12 µM
[21] = RPMI 5 mM glucose + 10% FBS, 15.4 µM
[22] = RPMI 5 mM glucose + 10% FBS, 46.1 µM
[23] = RPMI 5 mM glucose + 10% dialyzed FBS, 0.000781 µM
[24] = RPMI 5 mM glucose + 10% dialyzed FBS, 0.00234 µM
[25] = RPMI 5 mM glucose + 10% dialyzed FBS, 0.00702 µM
[26] = RPMI 5 mM glucose + 10% dialyzed FBS, 0.0211 µM
[27] = RPMI 5 mM glucose + 10% dialyzed FBS, 0.0632 µM
[28] = RPMI 5 mM glucose + 10% dialyzed FBS, 0.19 µM
[29] = RPMI 5 mM glucose + 10% dialyzed FBS, 0.569 µM
[30] = RPMI 5 mM glucose + 10% dialyzed FBS, 1.71 µM
[31] = RPMI 5 mM glucose + 10% dialyzed FBS, 5.12 µM
[32] = RPMI 5 mM glucose + 10% dialyzed FBS, 15.4 µM
[33] = RPMI 5 mM glucose + 10% dialyzed FBS, 46.1 µM

SMILES | cell viability [1] [%] | cell viability [2] [%] | cell viability [3] [%] | cell viability [4] [%] | cell viability [5] [%] | cell viability [6] [%] | cell viability [7] [%] | cell viability [8] [%] | cell viability [9] [%] | cell viability [10] [%] | cell viability [11] [%] | cell viability [12] [%] | cell viability [13] [%] | cell viability [14] [%] | cell viability [15] [%] | cell viability [16] [%] | cell viability [17] [%] | cell viability [18] [%] | cell viability [19] [%] | cell viability [20] [%] | cell viability [21] [%] | cell viability [22] [%] | cell viability [23] [%] | cell viability [24] [%] | cell viability [25] [%] | cell viability [26] [%] | cell viability [27] [%] | cell viability [28] [%] | cell viability [29] [%] | cell viability [30] [%] | cell viability [31] [%] | cell viability [32] [%] | cell viability [33] [%]
CC(C)[C@H](N)C(=O)OCCOC[N]1C=NC2=C1\N=C(N)/NC2=O | 102 | 119 | 110 | 122 | 135 | 135 | 133 | 123 | 133 | 113 | 142 | – | – | – | – | – | – | – | – | – | – | – | – | – | – | – | – | – | – | – | – | – | –
CC/1=C(\O)C(=O)\C=C2/C1=C/C=C3\[C@@]2(C)CC[C@@]4(C)[C@@H]5C[C@@](C)(CC[C@]5(C)CC[C@]34C)C(O)=O | 104 | 119 | 97.5 | 99.6 | 108 | 115 | 113 | 90 | 23.4 | 8.21 | 8.32 | 92.5 | 103 | 102 | 105 | 95 | 90.6 | 85.6 | 89.7 | 26.2 | 11 | 6.03 | 108 | 104 | 112 | 99.8 | 109 | 97.6 | 110 | 82.6 | 20.6 | 14.1 | 5.2
CC(C)(O)/C=C\C(=O)[C@](C)(O)[C@H]1[C@H](O)C[C@]2(C)[C@@H]3CC=C4[C@@H](C=C(O)C(=O)C4(C)C)[C@]3(C)C(=O)C[C@@]12C | 96.2 | 115 | 126 | 116 | 111 | 74.7 | 18.8 | 17.3 | 14.5 | 7.22 | 11.9 | 106 | 102 | 95.5 | 122 | 89.2 | 63.4 | 30.2 | 18.8 | 16.1 | 9.22 | 14.5 | 101 | 110 | 108 | 110 | 99.8 | 58.2 | 22.1 | 16 | 18.7 | 9.49 | 12.2
N#C/C(C(=O)c1ccc(Cl)cc1Cl)=C1/NC(=O)c2ccc(Cl)cc2N1 | 117 | 108 | 122 | 128 | 130 | 117 | 114 | 105 | 109 | 102 | 106 | 105 | 119 | 111 | 109 | 105 | 111 | 103 | 102 | 94.5 | 95.1 | 98.2 | 113 | 114 | 114 | 104 | 118 | 114 | 107 | 103 | 110 | 103 | 105
Cc1c[nH]c(-c2cnc(NCCNc3ccc(C#N)cn3)nc2-c2ccc(Cl)cc2Cl)n1 | 72.9 | 85.8 | 94.2 | 78.5 | 87.3 | 101 | 89.5 | 93.3 | 80.3 | 67.5 | 57.7 | 66.4 | 79.7 | 83.7 | 80.7 | 96.7 | 83.5 | 77.5 | 85.7 | 76.5 | 81.3 | 64.2 | 76.7 | 80.8 | 90.1 | 89.2 | 83.6 | 90.2 | 85.9 | 94.6 | 64.8 | 88 | 64.7
CN1CCN(CCOc2cc(OC3CCOCC3)c3c(Nc4c(Cl)ccc5c4OCO5)ncnc3c2)CC1 | 134 | 119 | 125 | 131 | 125 | 123 | 134 | 123 | 89.4 | 60.1 | 71.4 | – | – | – | – | – | – | – | – | – | – | – | – | – | – | – | – | – | – | – | – | – | –
C[C@](N)(Cc1ccc(O)c(O)c1)C(=O)O | 84.9 | 84.3 | 96.8 | 74.9 | 89.4 | 82 | 76.7 | 69.9 | 92.9 | 76.8 | 72.6 | 86.4 | 80.1 | 93.9 | 82 | 81.7 | 81 | 76.5 | 78.4 | 82.9 | 76.9 | 74.1 | 88.3 | 88.5 | 85 | 87.1 | 92.2 | 85.7 | 78.1 | 87.2 | 82.3 | 79 | 77.9
COC1=CC=C2/C3=N/CCN3\C(=N/C2=C1OC)NC(=O)C4=CC=CN=C4 | 124 | 132 | 123 | 131 | 121 | 126 | 114 | 111 | 93.2 | 86 | 78.6 | 104 | 115 | 113 | 123 | 132 | 108 | 110 | 114 | 107 | 115 | 92.7 | 116 | 141 | 117 | 127 | 131 | 104 | 103 | 103 | 83.6 | 76.5 | 68
CC(C)OC1=CC=C2C(=C1)O\C=C(/C2=O)C3=CC=CC=C3 | 116 | 119 | 130 | 143 | 151 | 120 | 122 | 105 | 108 | 123 | 120 | – | – | – | – | – | – | – | – | – | – | – | – | – | – | – | – | – | – | – | – | – | –
C[C@H]1COC/2=C1/C(=O)C(=O)C3=C4CCCC(C)(C)C4=CC=C23 | 114 | 131 | 121 | 116 | 154 | 146 | 137 | 163 | 158 | 132 | 134 | – | – | – | – | – | – | – | – | – | – | – | 123 | 129 | 120 | 136 | 135 | 129 | 148 | 156 | 141 | 134 | 151
